In US11185074B2, “Microbiocidal quinoline (thio)carboxamide derivatives” (SYNGENTA PARTICIPATIONS AG, priority 2017, dated 2021) one finds melting point, inhibition of growth and pest or weed control data, which are given here for 32 compounds.

For data set [1], the system named is Glomerella lagenarium (Colletotrichum lagenarium). Kind of data set: Glomerella lagenarium (Colletotrichum lagenarium) / liquid culture (anthracnose). In kind it is cell-based. As to conditions: Colletotrichum orbiculare, read-out: control of Glomerella lagenarium.
The test system of data set [2] is Botryotinia fuckeliana (Botrytis cinerea). Kind of data set: Botryotinia fuckeliana (Botrytis cinerea) / liquid culture (gray mould). In kind it is cell-based. Particulars: 72 h, read-out: control of Botryotinia fuckeliana.
Data set [3] deals with Fusarium culmorum. Nature of the data set: microbe, parasite or virus in culture. The format is cell-based. Particulars: read-out: control of Fusarium culmorum.
Data set [4] relates to Monographella nivalis (Microdochium nivale). Kind of data set: Monographella nivalis (Microdochium nivale) / liquid culture (foot rot cereals). The format is cell-based. Particulars: 96 h, inhibition of growth photometrically 4-5 days after application, compared to untreated control.
Data set [5] has as its system Magnaporthe grisea (Pyricularia oryzae). Nature of the data set: microbe, parasite or virus in culture. In kind it is cell-based. As to conditions: 72 h, read-out: control of Magnaporthe grisea.
Data set [6] deals with Fusarium culmorum. Kind of data set: whole plant or invertebrate. In kind it is in vivo, Fusarium culmorum on wheat spikelets cv. Monsun. Particulars: in Triticum aestivum, read-out: control of Fusarium culmorum.
The mark [7] stands for this setting: 20 ppm, liquid culture, inhibition of growth photometrically 3-4 days after application, compared to untreated control.

Like-named read-outs stand apart in the source and are kept apart here. A value given as a limit tells only on which side of the number the result lay.

`C/C(=C\c1ccccc1)CC(C)(C)NC(=O)c1cc2cccc(F)c2nc1C` came in with a melting point of 108 to 110 °C.
Regarding `CCCCCC(C)(C)NC(=O)c1cnc2c(F)cccc2c1` [E-1], the inhibition of growth at 20 ppm (in data set [1]; in data set [2]; in the data set on Fusarium culmorum [3]) was no less than 80% throughout.
Take `CC(C)(NC(=O)c1cnc2c(F)cccc2c1)C1CCCCC1` [E-7]: the inhibition of growth at 20 ppm (in data set [1] (setting [7]); in data set [2] (setting [7]); with Fusarium culmorum [3]; in data set [4]) was no less than 80% each time.
For the compound `CC1(CC(C)(CC(F)(F)F)NC(=O)c2cnc3c(F)cccc3c2)CC1` (centres unmarked) [E-10, 8-fluoro-N-[3,3,3-trifluoro-1-methyl-1-[(1-methylcyclopropyl)methyl]propyl]quinoline-3-carboxamide], the melting point was in the range of 126 to 128 °C. The inhibition of growth at 20 ppm in data set [1] (setting [7]) was no less than 80%. For the same compound, in data set [2] (setting [7]), the inhibition of growth at 20 ppm was no less than 80%. The inhibition of growth at 20 ppm in data set [5] is no less than 80%. Moreover, the inhibition of growth at 20 ppm in the data set with Fusarium culmorum [3] was no less than 80%. In addition, the inhibition of growth at 20 ppm in data set [4] is no less than 80%.
The compound `CC(C)=CCC(C)(CC(C)C)NC(=O)c1cnc2c(F)cccc2c1` (centres unmarked) [E-11] gave a melting point of 94 to 96 °C. The inhibition of growth at 20 ppm in data set [1] (setting [7]) was no less than 80%. Besides, in data set [2] (setting [7]), the inhibition of growth at 20 ppm was no less than 80%. Further, the inhibition of growth at 20 ppm in data set [5] was no less than 80%. In the data set on Fusarium culmorum [3], the inhibition of growth at 20 ppm is no less than 80%. For the same compound, the inhibition of growth at 20 ppm in data set [4] is no less than 80%.
`C=C(C)CC(C)(CC(C)C)NC(=O)c1cnc2ccccc2c1` (centres unmarked) [E-12] yielded a melting point of 89 to 91 °C. Further, the inhibition of growth at 20 ppm in data set [1] (setting [7]) is no less than 80%. Further, in data set [2] (setting [7]), the inhibition of growth at 20 ppm is no less than 80%. For the same compound, in the data set on Fusarium culmorum [6], the pest or weed control at 200 ppm is no less than 80%. Besides, the inhibition of growth at 20 ppm in data set [5] is no less than 80%. In addition, the inhibition of growth at 20 ppm with Fusarium culmorum [3] is no less than 80%. In data set [4], the inhibition of growth at 20 ppm is no less than 80%.
In the case of `CC(C)=CCC(C)(CC(C)C)NC(=O)c1cnc2ccccc2c1` (centres unmarked) [E-13], the inhibition of growth at 20 ppm (in data set [1] (setting [7]); in data set [2] (setting [7]); in data set [5]; in the data set on Fusarium culmorum [3]; in data set [4]) was no less than 80% in each case.
For the compound `CC(C)=C(C)CC(C)(CC(C)C)NC(=O)c1cnc2c(F)cccc2c1` (centres unmarked) [E-15], the inhibition of growth at 20 ppm (in data set [1] (setting [7]); in data set [2] (setting [7]); in data set [5]; in the data set with Fusarium culmorum [3]; in data set [4]) was no less than 80% throughout.
For `CC(Cc1ccccc1)C(C)(C)NC(=O)c1cnc2c(F)cccc2c1` (centres unmarked) [E-16], the inhibition of growth at 20 ppm (in data set [1] (setting [7]); in data set [2] (setting [7]); in the data set on Fusarium culmorum [3]; in data set [4]) was no less than 80% throughout. Besides, the pest or weed control at 200 ppm in the data set with Fusarium culmorum [6] was no less than 80%.
With `CC(CC1CC1)(CC1CC1)NC(=O)c1cnc2c(F)cccc2c1` [E-17], the melting point lay within 96 to 98 °C. Besides, the inhibition of growth at 20 ppm in data set [1] (setting [7]) was no less than 80%. In addition, the inhibition of growth at 20 ppm in data set [2] (setting [7]) was no less than 80%. The pest or weed control at 200 ppm in the data set with Fusarium culmorum [6] was no less than 80%. In data set [5], the inhibition of growth at 20 ppm is no less than 80%. In the data set with Fusarium culmorum [3], the inhibition of growth at 20 ppm was no less than 80%. In data set [4], the inhibition of growth at 20 ppm was no less than 80%.
For the compound `CC(C)=C(F)CC(C)(CC(C)C)NC(=O)c1cnc2ccccc2c1` (centres unmarked) [E-19], the melting point was 95 to 97 °C. The inhibition of growth at 20 ppm in data set [1] (setting [7]) was no less than 80%. In data set [2] (setting [7]), the inhibition of growth at 20 ppm is no less than 80%. Further, in the data set with Fusarium culmorum [6], the pest or weed control at 200 ppm was no less than 80%. In addition, in data set [5], the inhibition of growth at 20 ppm is no less than 80%. For the same compound, in the data set with Fusarium culmorum [3], the inhibition of growth at 20 ppm was no less than 80%.
On to `CC(C)CC(C)CC(C)(C)NC(=O)c1cnc2c(F)cccc2c1` (centres unmarked) [E-22], for which the inhibition of growth at 20 ppm (in data set [1] (setting [7]); in data set [2] (setting [7]); in data set [5]; in the data set with Fusarium culmorum [3]; in data set [4]) was no less than 80% in each case.
`O=C(NC(CC1CC1)CC1CC1)c1cnc2c(F)cccc2c1` [E-24] showed a melting point of 141 to 143 °C. For the same compound, the inhibition of growth at 20 ppm in data set [1] (setting [7]) was no less than 80%. For the same compound, the inhibition of growth at 20 ppm in data set [2] (setting [7]) was no less than 80%. In addition, the inhibition of growth at 20 ppm in data set [5] is no less than 80%. Also, the inhibition of growth at 20 ppm in the data set with Fusarium culmorum [3] was no less than 80%.
`CC(CC1CC1)(CC1CC1)NC(=O)c1cnc2ccccc2c1` [E-26]: the melting point lay within 92 to 94 °C. Besides, the inhibition of growth at 20 ppm in data set [1] (setting [7]) is no less than 80%. Also, the inhibition of growth at 20 ppm in data set [2] (setting [7]) was no less than 80%. Further, the pest or weed control at 200 ppm in the data set with Fusarium culmorum [6] was no less than 80%. Also, the inhibition of growth at 20 ppm with Fusarium culmorum [3] is no less than 80%. Moreover, in data set [4], the inhibition of growth at 20 ppm is no less than 80%.
`C/C(=C/c1ccccc1)CC(C)(C)NC(=O)c1cnc2c(F)cccc2c1C` [E-28] showed a melting point of 96 to 98 °C. Further, the inhibition of growth at 20 ppm in data set [2] (setting [7]) is no less than 80%. In addition, the inhibition of growth at 20 ppm in the data set on Fusarium culmorum [3] was no less than 80%.
The compound `O=C(NC(CC1CC1)CC1CC1)c1cnc2ccccc2c1` [E-29] gave a melting point of 123 to 125 °C. Besides, the inhibition of growth at 20 ppm in data set [1] (setting [7]) was no less than 80%. In data set [2] (setting [7]), the inhibition of growth at 20 ppm is no less than 80%. Besides, in the data set on Fusarium culmorum [3], the inhibition of growth at 20 ppm is no less than 80%.
Regarding `COc1ccc(CCC(C)(C#N)NC(=O)c2cnc3c(F)cccc3c2)cc1` (centres unmarked) [E-30], the melting point was 175 to 176 °C. The inhibition of growth at 20 ppm in data set [1] (setting [7]) was no less than 80%. Besides, in the data set with Fusarium culmorum [3], the inhibition of growth at 20 ppm is no less than 80%.
`C/C(=C/c1ccccc1)CC(C)(C)NC(=O)c1cnc2c(F)cccc2c1` [E-31]: the melting point was in the range of 127 to 129 °C. The inhibition of growth at 20 ppm in data set [2] (setting [7]) was no less than 80%. For the same compound, the inhibition of growth at 20 ppm in data set [4] was no less than 80%.
With `CC(C)CC=CCC(C)(C)NC(=O)c1cnc2c(F)c(F)ccc2c1` [E-33], the inhibition of growth at 20 ppm (in data set [1] (setting [7]); in data set [2] (setting [7]); in the data set with Fusarium culmorum [3]; in data set [4]) was no less than 80% in each case.
On to `CC(C)(C/C=C/c1ccccc1)NC(=O)c1cnc2c(F)c(F)ccc2c1` [E-34], for which the inhibition of growth at 20 ppm (in data set [2] (setting [7]); with Fusarium culmorum [3]; in data set [4]) was no less than 80% throughout.
In turn, `CC(C)CC(C)(C#N)NC(=O)c1cnc2c(F)cccc2c1` (centres unmarked) [E-35] returned a melting point of 167 to 171 °C. In the data set with Fusarium culmorum [3], the inhibition of growth at 20 ppm was no less than 80%.
`C=CCC(C)(C)NC(=O)c1cnc2c(F)c(F)ccc2c1` [E-36] displayed a melting point of 116 to 119 °C. The inhibition of growth at 20 ppm in data set [1] (setting [7]) is no less than 80%. Besides, the inhibition of growth at 20 ppm in data set [2] (setting [7]) is no less than 80%. Moreover, the inhibition of growth at 20 ppm with Fusarium culmorum [3] is no less than 80%.
For `CCC(CC)CC(C)NC(=O)c1cnc2ccccc2c1` (centres unmarked) [E-38], the inhibition of growth at 20 ppm (in data set [1] (setting [7]); in data set [2] (setting [7]); in the data set on Fusarium culmorum [3]; in data set [4]) was no less than 80% throughout.
On to `CCC(CC)CC(C)NC(=O)c1cnc2c(C)cccc2c1` (centres unmarked) [E-39], for which the inhibition of growth at 20 ppm (in data set [1] (setting [7]); in data set [2] (setting [7]); with Fusarium culmorum [3]) was no less than 80% throughout.
In the case of `CCC(CC)CC(C)NC(=O)c1cnc2c(F)cccc2c1` (centres unmarked) [E-40], the inhibition of growth at 20 ppm (in data set [1] (setting [7]); in data set [2] (setting [7]); in the data set on Fusarium culmorum [3]; in data set [4]) was no less than 80% in each case.
Regarding `CCCC(C)CC(C)NC(=O)c1cnc2ccccc2c1` (centres unmarked) [E-41], the inhibition of growth at 20 ppm (in data set [1] (setting [7]); in data set [2] (setting [7]); in the data set with Fusarium culmorum [3]) was no less than 80% throughout.
Turning to `CCC(CC)CC(C)(CC(F)(F)F)NC(=O)c1cnc2ccccc2c1` (centres unmarked) [E-43], the melting point lay within 93 to 95 °C. The inhibition of growth at 20 ppm in data set [1] (setting [7]) was no less than 80%. Also, the inhibition of growth at 20 ppm in data set [2] (setting [7]) was no less than 80%. In the data set with Fusarium culmorum [6], the pest or weed control at 200 ppm is no less than 80%. The inhibition of growth at 20 ppm in data set [5] was no less than 80%. Moreover, in the data set with Fusarium culmorum [3], the inhibition of growth at 20 ppm was no less than 80%.
Regarding `CCC(CC)CC(C)(CC(F)(F)F)NC(=O)c1cnc2c(C)cccc2c1` (centres unmarked) [E-44], the inhibition of growth at 20 ppm (in data set [1] (setting [7]); in data set [2] (setting [7]); in data set [5]; in the data set with Fusarium culmorum [3]; in data set [4]) was no less than 80% each time.
On to `CC(CC1CC=CCC1)NC(=O)c1cnc2ccccc2c1` (centres unmarked) [E-49], for which the inhibition of growth at 20 ppm (in data set [1] (setting [7]); in data set [2] (setting [7]); with Fusarium culmorum [3]) was no less than 80% in each case.
Regarding `Cc1cccc2cc(C(=O)NC(C)CC3CC=CCC3)cnc12` (centres unmarked) [E-50], the inhibition of growth at 20 ppm (in data set [1] (setting [7]); in data set [2] (setting [7]); in the data set with Fusarium culmorum [3]; in data set [4]) was no less than 80% throughout. In addition, the pest or weed control at 200 ppm with Fusarium culmorum [6] was no less than 80%.
`CCCC(C)CC(C)NC(=O)c1cnc2c(F)cccc2c1` (centres unmarked) [E-51]: the inhibition of growth at 20 ppm (in data set [1] (setting [7]); in data set [2] (setting [7]); in the data set on Fusarium culmorum [3]; in data set [4]) was no less than 80% in each case.
With `CCCC(C)CC(C)(CC(F)(F)F)NC(=O)c1cnc2c(F)cccc2c1` (centres unmarked) [E-52], the inhibition of growth at 20 ppm (in data set [1] (setting [7]); in data set [2] (setting [7]); in data set [5]; with Fusarium culmorum [3]; in data set [4]) was no less than 80% each time. Further, the pest or weed control at 200 ppm in the data set with Fusarium culmorum [6] is no less than 80%.

What is called melting point is the temperature, or range, at which the solid turns liquid.
